Assay results published in ChEMBL document CHEMBL1151242, “A new antifungal metabolite from Penicillium expansum” (2004).

system: Lasiodiplodia theobromae; assay: Antifungal activity against Lasiodiplodia theobromae OCS71 assessed as inhibition of mycelial growth at 100 ug/ml after 4 days by fungicide disk assay; assay type: functional; conditions: 96 h

Structure (SMILES)	inhibition at 100 µg/mL [%]
COc1cc(O)c(C)c2c1CO[C@@H](C)C2	< 10
COc1cc(O)c(C)c2c1[C@@H](OC)O[C@@H](C)C2	76
COC1=CC(=O)C(C)=C2C[C@H](C)OC=C12	69
CCOC1O[C@@H](C)Cc2c(C)c(O)cc(OC)c21 (some centres undefined)	74
